Laboratory results published in US20120309683A1, “USE OF […] ADENYLATE CYCLASE-ACTIVATING POLYPEPTIDE (PACAP) AND PACAP ANALOGS AS ADJUNCTIVE TREATMENTS WITH INHIBITORS OF CALCINEURIN OR INHIBITORS OF THE […] TARGET OF RAPAMYCIN (mTOR) COMPLEXES” (The Administrators of the Tulane Educational Fund, priority 2010, published 2012).
Like-named read-outs stand apart in the source and are kept apart here. Where no end group is shown, it is not given here. [ ]: non-standard residue; d: D form. The star is where a group is joined. Palmitoyl = CCCCCCCCCCCCCCCC(=O)*; Aib = CC(C)(N)C(=O)O

What was measured:
[1] = tested on: HK-2 human kidney cells (human renal proximal tubule epithelial cells); assay: Sirolimus-induced apoptotic cell death of HK-2 cells, histone-associated DNA fragmentation; assay type: cell-based
Procedure: The HK-2 human kidney cells were cultured in Keratinocyte-Serum Free Medium supplemented with recombinant epidermal growth factor and bovine pituitary extract. The dose-dependent inhibitory effect of PACAP38 on apoptotic cell death was assessed by the quantitative determination of cytoplasmic histone-associated DNA-fragmentation (mono- and oligonucleosomes) after exposure to 100 ng/ml of sirolimus for 24 hours. Each value represents the mean plus/minus the standard error of eight determinations. **p<0.01 and *p<0.05 compared to the cells treated only with sirolimus.

[2] = tested on: light-chain immunoglobulin-secreting human multiple myeloma cells; assay: Proliferation of multiple myeloma cells with sirolimus, bromodeoxyuridine incorporation; assay type: cell-based; details: for rate of proliferation of the human B-lymphocyte cell line: multiple myeloma cells with sirolimus, 10^−9 M to 10^−6 M peptide, 24-hour incubation
Procedure: The light-chain immunoglobulin-secreting human multiple myeloma cells were cultured in RPMI 1640 medium supplemented with 10% non-inactivated fetal bovine serum and 0.05 mM 2-mercaptoethanol. The effects of PACAP38, PACAP27 and PACAP analogs on myeloma cell proliferation were assessed by determining incorporation of bromodeoxyuridine into DNA during cell division. The number of myeloma cells approximately doubled during the 24-hour incubation period in the absence of treatment with PACAP-like peptides. Four different concentrations, ranging from 10^−9 M to 10^−6 M, were tested for PACAP38, PACAP27 and each of the PACAP analogs. Each value represents the mean plus/minus the standard error of four determinations. **p<0.01 and *p<0.05 compared to the cells treated only with sirolimus.
The effects of PACAP38, PACAP27 and PACAP analogs on human cell proliferation were assessed by determining incorporation of bromodeoxyuridine into DNA during cell division. […] At the highest dose (10^−6 M), PACAP38 inhibited the proliferation by more than 50%.

[3] = tested on: HK-2 human kidney cells (human renal proximal tubule epithelial cells); assay: Cyclosporine A-induced injury (cytotoxicity) of HK-2 cells, lactate dehydrogenase in culture medium; assay type: cell-based; details: PACAP38 10^−8 M added to medium of cyclosporine A-treated HK-2 cells
Procedure: (§1) The effects of PACAP38 at a concentration of 10^−8 M on cell injury were assessed by determining the activity of the cytoplasmic enzyme lactate dehydrogenase in the culture medium. Each value represents the mean plus/minus the standard error of four determinations. **p<0.01 compared to the cells treated only with cyclosporine A.

[4] = tested on: human renal proximal tubule epithelial cells (HK-2); assay: TGF-β1 secretion by HK-2 cells treated with cyclosporine A; assay type: cell-based; details: PACAP38 10^−8 M, cyclosporine A-treated HK-2 cells
Procedure: as §1, with “the production of TGF-β1” for “cell injury”, “concentration” for “activity”, “TGF-β1” for “the cytoplasmic enzyme lactate dehydrogenase”, “six” for “four”

HK-2 human kidney cells = assay: Morphology of HK-2 cells, phase-contrast microscopy; assay type: cell-based; details: 50 μM cyclosporine A and 10^−8 M PACAP38 for 48 hours
Procedure: The cells were visualized with an inverted phase-contrast microscope. The HK-2 human kidney cells were grown to 80% confluence. (A) The morphology of the HK-2 cells grown in normal medium.

Male C57BL/6 mice = assay: Cyclosporine A-induced nephrotoxicity in mice (serum creatinine, kidney TGF-β1); assay type: in vivo; details: cyclosporine A 5 mg/kg i.p., 20 μg PACAP38 i.p. 1 h before, 24 and 48 h
Procedure: The control group of mice was injected intraperitoneally with the same volume of saline as for the injections of cyclosporine A and PACAP38 on the same schedule. The mice were euthanized 24 hours after the final injection of PACAP38.
Male C57BL/6 mice were given a single intraperitoneal injection of 5 mg/kg of cyclosporine A. Twenty micrograms of PACAP38 were given intraperitoneally 1 hour before the injection of cyclosporine A and additional doses were given at 24 and 48 hours after the initial dose. The control group of mice was injected intraperitoneally with the same volume of saline as for the injections of cyclosporine A and PACAP38 on the same schedule. The mice were euthanized 24 hours after the final injection of PACAP38.

[5] = tested on: HK-2 human kidney cells (human renal proximal tubule epithelial cells); assay: Tacrolimus-induced loss of viability of HK-2 cells, lactate dehydrogenase in intact cells; assay type: cell-based; details: for loss of viable human renal proximal tubule epithelial cells caused by tacrolimus: various concentrations of peptide added to medium
Procedure: The HK-2 human kidney cells were cultured in Keratinocyte-Serum Free Medium supplemented with recombinant epidermal growth factor and bovine pituitary extract. […] Each value represents the mean plus/minus the standard error of five determinations. **p<0.01 and *p<0.05 compared to the cells treated only with tacrolimus.

[6] = tested on: Jurkat human T-lymphocyte cells; assay: Mitogen-stimulated secretion of interleukin-2 from Jurkat cells; assay type: cell-based; details: PHA and PMA stimulated Jurkat cells; for mitogen-induced secretion of interleukin-2 into the medium: 24 hours
Procedure: The Jurkat human T-lymphocyte cells were cultured in RPMI 1640 medium supplemented with 10% heat-inactivated fetal calf serum. The Jurkat cells were stimulated with the mitogens phytohemagglutinin (PHA, 1 mg/ml) and phorbol 12-myristate 13-acetate (PMA, 50 ng/ml). […] Each value represents the mean plus/minus the standard error of eight determinations. **p<0.01 and *p<0.05 compared to the cells treated only with the mitogens.
(§2) However, when Jurkat cells were stimulated with PHA and PMA, large quantities of interleukin-2 could be detected in the medium (FIG. 9). […] At the highest dose (10^−5 M), PACAP38 inhibited the proliferation of the Jurkat cells by more than 50%.

[7] = tested on: Jurkat human T-lymphocyte cells; assay: Proliferation of Jurkat cells, bromodeoxyuridine incorporation; assay type: cell-based; details: for rate of proliferation of the human T-lymphocyte cell line: mitogen-stimulated Jurkat cells, 24 hours
Procedure: The Jurkat human T-lymphocyte cells were cultured in RPMI 1640 medium supplemented with 10% heat-inactivated fetal calf serum. The Jurkat cells were stimulated with mitogens (1 mg/ml of PHA and 50 ng/ml of PMA).
as §2

[8] = tested on: Jurkat human T-lymphocyte cells; assay: Inhibition by cyclosporine A of IL-2 secretion from Jurkat cells, enhancement by peptides; assay type: cell-based; details: peptide added on top of cyclosporine, 24 hours
Procedure: The Jurkat human T-lymphocyte cells were cultured in RPMI 1640 medium supplemented with 10% heat-inactivated fetal calf serum. The Jurkat cells were stimulated with mitogens (1 mg/ml of PHA and 50 ng/ml of PMA). […] Each value represents the mean plus/minus the standard error of eight determinations. **p<0.01 and *p<0.05 compared to the cells treated only with the mitogens.
However, when Jurkat cells were stimulated with PHA and PMA, large quantities of interleukin-2 could be detected in the medium (FIG. 11).

[9] = tested on: human renal proximal tubule epithelial cells; assay: Methotrexate-induced apoptotic cell death of human renal proximal tubule epithelial cells; assay type: cell-based; details: methotrexate for 24 hours
Procedure: (§3) The inhibitory effects of PACAP38 on apoptotic cell death were assessed by the quantitative determination of cytoplasmic histone-associated DNA-fragmentation (mono- and oligonucleosomes) after exposure to methotrexate for 24 hours. Each value represents the mean plus/minus the standard deviation of six determinations. **p<0.01 and *p<0.05 compared to the cells treated only with methotrexate.
(§4) An ideal cytoprotective adjunctive agent should have the same effect as the main therapeutic agent against the intended therapeutic target, but protect the patient against the deleterious “off-target” effects of the main therapeutic. […] Furthermore, these experiments indicate that PACAP-like compounds would be beneficial as monotherapeutics for the treatment of leukemias. These experiments also indicate that combination therapy with PACAP-like compounds plus azathioprine or 6-mercaptopurine would result in an increased therapeutic index compared to azathioprine or 6-mercaptopurine, respectively, alone.

[10] = tested on: human T-lymphocyte cells (Jurkat); assay: Methotrexate-induced apoptotic cell death of Jurkat cells; assay type: cell-based; details: methotrexate and PACAP38 for 24 hours, same dose range
Procedure: as §3, with “Jurkat cells were cultured in RPMI 1640 medium supplemented with 10% heat-inactivated fetal calf serum. The cells were treated with PACAP38 for 24 hours. The […]” for “inhibitory”, “error” for “deviation”, “eight” for “six”
as §4

rat [11] = details: 48 hours, cited from earlier work
rat [12] = details: 15-minute occlusion, continuous infusion; cited from earlier work
[13] = tested on: PC-3 human prostate cancer cells; details: nude mice; cited from earlier work
[14] = tested on: NCI-H838 human non-small cell lung cancer cells; details: nude mice; cited from earlier work
[15] = tested on: MCF-7 human breast cancer cells; details: nude mice; cited from earlier work
[16] = rat, in vivo, iv; cited from earlier work

Compound: CO[C@H]1C[C@@H]2CC[C@@H](C)[C@@](O)(O2)C(=O)C(=O)N2CCCC[C@H]2C(=O)O[C@H]([C@H](C)C[C@@H]2CC[C@@H](O)[C@H](OC)C2)CC(=O)[C@H](C)/C=C(\C)[C@@H](O)[C@@H](OC)C(=O)[C@H](C)C[C@H](C)/C=C/C=C/C=C/1C [sirolimus, reference compound]
- apoptotic cell death ([1]; 100 ng/ml sirolimus for 24 hours, HK-2 cells): large significant increase in apoptotic cell death

Compound: PACAP27 (HSDGIFTDSYSRYRKQMAVKKYLAAVL-NH2; listed as Homo sapiens)
- rate of proliferation of the human B-lymphocyte cell line [2]: significant dose-dependent inhibition

Compound: PACAP38
- cyclosporine A-induced cell death [3]: almost completely prevented
- cyclosporine A-induced secretion of TGF-β1 into the medium [4]: almost completely prevented the secretion of TGF-β1
- restoration of the cell monolayer, confluence (HK-2 human kidney cells): 70-80%
- number of grossly elongated and filopodia-formatted cells (HK-2 human kidney cells; versus cyclosporine A alone): marked reduction
- increase in TGF-β1 in the kidney (Male C57BL/6 mice): significantly reduced the increases
- increase in serum creatinine (Male C57BL/6 mice): significantly reduced the increases
- potency as a renoprotectant relative to VIP ([5]; tacrolimus-treated HK-2 cells): significantly more potent than VIP
- loss of viable human renal proximal tubule epithelial cells caused by tacrolimus [5]: significant dose-dependent reduction
- sirolimus-induced apoptotic cell death ([1]; highest dose 10^−6 M): almost completely prevented
- sirolimus-induced apoptotic cell death ([1]; varying concentrations of PACAP38): significant dose-dependent reduction
- relative potency of PACAP38 and VIP on interleukin-2 secretion [6]: appeared to be equipotent
- mitogen-induced secretion of interleukin-2 into the medium [6]: large significant inhibition
- inhibition of proliferation of Jurkat cells ([7]; highest dose 10^−5 M): more than 50%
- rate of proliferation of the human T-lymphocyte cell line [7]: significant dose-dependent inhibition
- cyclosporine-induced inhibition of interleukin-2 secretion [8]: small dose-dependent enhancement
- inhibition of proliferation ([2]; highest dose 10^−6 M): more than 50%
- rate of proliferation of the human B-lymphocyte cell line [2]: significant dose-dependent inhibition
- toxic side-effects of methotrexate on human renal proximal tubule epithelial cells (apoptotic cell death) [9]: potently inhibits the toxic side-effects of methotrexate
- killing of human T lymphocyte cells by methotrexate (apoptotic cell death) [10]: potently stimulates the killing
- reduction of the infarct volume (rat [11]; continuous i.v. infusion beginning 4 hours after start of 2 h MCAO): approximately 51%
- reduction of the infarct volume (rat [11]; continuous i.v. infusion beginning 8 hours after start of 2 h MCAO): ~22%
- reduction of the infarct volume (rat [11]; continuous i.v. infusion beginning 12 hours after start of 2 h MCAO): ~12%
- reduction in the number of CA1 pyramidal cells at day 7 post-occlusion (rat [12]): significantly reversed

Compound: PACAP(6-38) (FTDSYSRYRKQMAVKKYLAAVLGKRYKQRVKNK; ends and bridges not checked; UniProt P18509 137-169, looked up, fragment) [a PACAP/VIP receptor antagonist]
- growth of xenografts [13]: inhibited the growth
- growth of xenografts [14]: inhibited the growth
- growth of xenografts [15]: inhibited the growth

Compound: VIP (HSDAVFTDNYTRLRKQMAVKKYLNSILN-NH2; listed as Homo sapiens)
- loss of viable human renal proximal tubule epithelial cells caused by tacrolimus [5]: significant dose-dependent reduction
- mitogen-induced secretion of interleukin-2 into the medium [6]: large significant inhibition
- rate of proliferation of the human T-lymphocyte cell line [7]: significant dose-dependent inhibition
- cyclosporine-induced inhibition of interleukin-2 secretion [8]: small dose-dependent enhancement

Compound: [Aib^2]PACAP38 (H[Aib]DGIFTDSYSRYRKQMAVKKYLAAVLGKRYKQRVKNK; ends and bridges not checked)
- rate of proliferation of the human T-lymphocyte cell line [7]: significant dose-dependent inhibition
- rate of proliferation of the human B-lymphocyte cell line [2]: significant dose-dependent inhibition

Compound: [Ala^16,Ala^17,D-Lys^38]PACAP38 (HSDGIFTDSYSRYRKAAAVKKYLAAVLGKRYKQRVKN[dK]; ends and bridges not checked)
- loss of viable human renal proximal tubule epithelial cells caused by tacrolimus [5]: significant dose-dependent reduction

Compound: [Ala^22]PACAP38 (HSDGIFTDSYSRYRKQMAVKKALAAVLGKRYKQRVKNK; ends and bridges not checked)
- rate of proliferation of the human B-lymphocyte cell line [2]: significant dose-dependent inhibition

Compound: [D-Ser^2,Lys^38-palmitoyl]PACAP38 (H[dS]DGIFTDSYSRYRKQMAVKKYLAAVLGKRYKQRVKNK(Palmitoyl); not fully specified (C-terminus))
- loss of viable human renal proximal tubule epithelial cells caused by tacrolimus [5]: significant dose-dependent reduction

Compound: [D-Ser^2]PACAP38 (H[dS]DGIFTDSYSRYRKQMAVKKYLAAVLGKRYKQRVKNK; not fully specified (C-terminus))
- loss of viable human renal proximal tubule epithelial cells caused by tacrolimus [5]: significant dose-dependent reduction
- mitogen-induced secretion of interleukin-2 into the medium [6]: large significant inhibition
- rate of proliferation of the human T-lymphocyte cell line [7]: significant dose-dependent inhibition
- cyclosporine-induced inhibition of interleukin-2 secretion [8]: small dose-dependent enhancement

Compound: [Lys^34]PACAP38 (HSDGIFTDSYSRYRKQMAVKKYLAAVLGKRYKQKVKNK; ends and bridges not checked)
- rate of proliferation of the human B-lymphocyte cell line [2]: significant dose-dependent inhibition

Compound: [^125I]-PACAP38
- half-life in the bloodstream [16]: 5 to 6 min
